Where a SMILES comes first, the peptide text is derived from it. [ ]: non-standard residue; d: D form.
Key:
[1] = test system: clinical strains of Escherichia coli; experiment: MIC, clinical strains of E. coli; type: cell-based; design: unit: μg/ml; details: microdilution, Muller Hinton broth-cation adjusted, 0.02% BSA, 0.2% acetic acid
Method in brief: (§1)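 Broth microdilution in Mueller Hinton broth, inoculum adjusted to 5.0×10^5 cfu/ml, peptide tested at 0.125 to 128 μg/ml and incubated at 37° C. for 20 to 24 hours. MIC was the lowest concentration with no visible growth. Yeasts were tested in potato dextrose broth.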

[2] = test system: clinical strains of Klebsiella pneumoniae; experiment: MIC, clinical strains of K. pneumoniae; type: cell-based; design: unit: μg/ml; details: microdilution, Muller Hinton broth-cation adjusted, 0.02% BSA, 0.2% acetic acid
Method in brief: as §1

[3] = test system: clinical strains of Pseudomonas aeruginosa; experiment: MIC, clinical strains of P. aeruginosa; type: cell-based; design: unit: μg/ml; details: microdilution, Muller Hinton broth-cation adjusted, 0.02% BSA, 0.2% acetic acid
Method in brief: as §1

[4] = test system: clinical strains of Serratia marcescens; experiment: MIC, clinical strains of Serratia marcescens; type: cell-based; design: unit: µg/mL; details: microdilution, Muller Hinton broth-cation adjusted, 0.02% BSA, 0.2% acetic acid
Method in brief: as §1

[5] = test system: clinical strains of Proteus mirabilis; experiment: MIC, clinical strains of Proteus mirabilis; type: cell-based; design: unit: µg/mL; details: microdilution, Muller Hinton broth-cation adjusted, 0.02% BSA, 0.2% acetic acid
Method in brief: as §1

[6] = test system: clinical strains of Enterobacter cloacae; experiment: MIC, clinical strains of Enterobacter cloacae; type: cell-based; design: unit: μg/ml; details: microdilution, Muller Hinton broth-cation adjusted, 0.02% BSA, 0.2% acetic acid
Method in brief: as §1

[7] = test system: clinical strains of Staphylococcus aureus; experiment: MIC, clinical strains of S. aureus; type: cell-based; design: unit: μg/ml; details: microdilution, Muller Hinton broth-cation adjusted, 0.02% BSA, 0.2% acetic acid
Method in brief: as §1

[8] = test system: clinical strains of Streptococcus pneumoniae; experiment: MIC, clinical strains of Streptococcus pneumoniae; type: cell-based; design: unit: µg/mL; details: microdilution, Muller Hinton broth-cation adjusted, 0.02% BSA, 0.2% acetic acid
Method in brief: as §1

[9] = test system: clinical strains of Acinetobacter baumannii; experiment: MIC, clinical strains of Acinetobacter baumannii; type: cell-based; details: microdilution, Muller Hinton broth-cation adjusted, 0.02% BSA, 0.2% acetic acid
Method in brief: as §1

[10] = test system: clinical strains of Acinetobacter johnsonii; type: cell-based; details: Acinetobacter johnsonii clinical strain 1; microdilution, Muller Hinton broth-cation adjusted, 0.02% BSA, 0.2% acetic acid
Method in brief: as §1

[11] = test system: clinical strains of Candida albicans; experiment: MIC, clinical yeast strains, Candida albicans; type: cell-based; design: unit: μg/ml
Method in brief: as §1

[12] = test system: clinical strains of C. glabrata; experiment: MIC, clinical yeast strains, C. glabrata; type: cell-based, Candida glabrata; design: unit: μg/ml
Method in brief: as §1

[13] = test system: clinical strains of C. parapsilosis; experiment: MIC, clinical yeast strains, C. parapsilosis; type: cell-based, Candida parapsilosis; design: unit: μg/ml
Method in brief: as §1

[14] = test system: clinical strains of C. quillermondiae; experiment: MIC, clinical yeast strains, C. quillermondiae; type: cell-based; details: C. quillermondiae clinical yeast strain 1
Method in brief: as §1

**Q.** With CC(C)C[C@@H](NC(=O)[C@H](N)CCCNC(=N)N)C(=O)N[C@H](CCCCN)C(=O)N[C@H](CCCNC(=N)N)C(=O)N[C@H](Cc1c[nH]c2ccccc12)C(=O)N[C@H](CCCNC(=N)N)C(=O)N[C@H](CC(C)C)C(=O)N[C@H](Cc1ccccc1)C(=O)N[C@H](CCCNC(=N)N)C(=O)N[C@H](CCCCN)C(=O)N[C@H](CCCNC(=N)N)C(=O)O [Chain306D] (H-[dR][dL][dK][dR][dW][dR][dL][dF][dR][dK][dR]-OH) as the compound, how does the Minimum inhibitory concentration ([1]; Escherichia coli clinical strain 1) read?
**A.** The Minimum inhibitory concentration was 1.

**Q.** What about the Minimum inhibitory concentration ([1]; Escherichia coli clinical strain 2) of the same compound?
**A.** The Minimum inhibitory concentration was 2.

**Q.** What about the Minimum inhibitory concentration ([1]; Escherichia coli clinical strain 3) of the same compound?
**A.** The Minimum inhibitory concentration was 2.

**Q.** And the Minimum inhibitory concentration ([1]; Escherichia coli clinical strain 4)?
**A.** Its Minimum inhibitory concentration is 2.

**Q.** What about the Minimum inhibitory concentration ([1]; Escherichia coli clinical strain 5) of the same compound?
**A.** The Minimum inhibitory concentration was 2.

**Q.** What about the Minimum inhibitory concentration ([2]; Klebsiella pneumoniae clinical strain 1) of the same compound?
**A.** The Minimum inhibitory concentration was 128.

**Q.** And the Minimum inhibitory concentration ([2]; Klebsiella pneumoniae clinical strain 2)?
**A.** The Minimum inhibitory concentration was over 128.

**Q.** And the Minimum inhibitory concentration ([2]; Klebsiella pneumoniae clinical strain 3)?
**A.** Its Minimum inhibitory concentration is over 128.

**Q.** What about the Minimum inhibitory concentration ([2]; Klebsiella pneumoniae clinical strain 4) of the same compound?
**A.** Its Minimum inhibitory concentration is 64.

**Q.** What about the Minimum inhibitory concentration ([2]; Klebsiella pneumoniae clinical strain 5) of the same compound?
**A.** Its Minimum inhibitory concentration is 64.

**Q.** What about the Minimum inhibitory concentration ([3]; Pseudomonas aeruginosa clinical strain 1) of the same compound?
**A.** The Minimum inhibitory concentration was 128.

**Q.** And the Minimum inhibitory concentration ([3]; Pseudomonas aeruginosa clinical strain 2)?
**A.** Its Minimum inhibitory concentration is over 128.

**Q.** What about the Minimum inhibitory concentration ([3]; Pseudomonas aeruginosa clinical strain 3) of the same compound?
**A.** Its Minimum inhibitory concentration is 128.

**Q.** And the Minimum inhibitory concentration ([3]; Pseudomonas aeruginosa clinical strain 4)?
**A.** The Minimum inhibitory concentration was over 128.

**Q.** What about the Minimum inhibitory concentration ([3]; Pseudomonas aeruginosa clinical strain 5) of the same compound?
**A.** Its Minimum inhibitory concentration is 128.

**Q.** What about the Minimum inhibitory concentration ([4]; Serratia marcescens clinical strain 1) of the same compound?
**A.** The Minimum inhibitory concentration was over 128.

**Q.** What about the Minimum inhibitory concentration ([4]; Serratia marcescens clinical strain 2) of the same compound?
**A.** Its Minimum inhibitory concentration is over 128.

**Q.** And the Minimum inhibitory concentration ([4]; Serratia marcescens clinical strain 3)?
**A.** The Minimum inhibitory concentration was over 128.

**Q.** What about the Minimum inhibitory concentration ([4]; Serratia marcescens clinical strain 4) of the same compound?
**A.** Its Minimum inhibitory concentration is over 128.

**Q.** And the Minimum inhibitory concentration ([4]; Serratia marcescens clinical strain 5)?
**A.** The Minimum inhibitory concentration was over 128.

**Q.** What about the Minimum inhibitory concentration ([5]; Proteus mirabilis clinical strain 1) of the same compound?
**A.** Its Minimum inhibitory concentration is over 128.

**Q.** What about the Minimum inhibitory concentration ([5]; Proteus mirabilis clinical strain 2) of the same compound?
**A.** The Minimum inhibitory concentration was over 128.

**Q.** What about the Minimum inhibitory concentration ([5]; Proteus mirabilis clinical strain 3) of the same compound?
**A.** The Minimum inhibitory concentration was over 128.

**Q.** And the Minimum inhibitory concentration ([5]; Proteus mirabilis clinical strain 4)?
**A.** The Minimum inhibitory concentration was over 128.

**Q.** What about the Minimum inhibitory concentration ([5]; Proteus mirabilis clinical strain 5) of the same compound?
**A.** Its Minimum inhibitory concentration is over 128.

**Q.** What about the Minimum inhibitory concentration ([6]; Enterobacter cloacae clinical strain 1) of the same compound?
**A.** The Minimum inhibitory concentration was 64.

**Q.** And the Minimum inhibitory concentration ([6]; Enterobacter cloacae clinical strain 2)?
**A.** The Minimum inhibitory concentration was 64.

**Q.** And the Minimum inhibitory concentration ([6]; Enterobacter cloacae clinical strain 3)?
**A.** Its Minimum inhibitory concentration is 32.

**Q.** What about the Minimum inhibitory concentration ([6]; Enterobacter cloacae clinical strain 4) of the same compound?
**A.** Its Minimum inhibitory concentration is 16.

**Q.** What about the Minimum inhibitory concentration ([6]; Enterobacter cloacae clinical strain 5) of the same compound?
**A.** The Minimum inhibitory concentration was 16.

**Q.** What about the Minimum inhibitory concentration ([7]; Staphylococcus aureus clinical strain 1) of the same compound?
**A.** The Minimum inhibitory concentration was 16.

**Q.** And the Minimum inhibitory concentration ([7]; Staphylococcus aureus clinical strain 2)?
**A.** The Minimum inhibitory concentration was 32.

**Q.** What about the Minimum inhibitory concentration ([7]; Staphylococcus aureus clinical strain 3) of the same compound?
**A.** The Minimum inhibitory concentration was 32.

**Q.** What about the Minimum inhibitory concentration ([7]; Staphylococcus aureus clinical strain 4) of the same compound?
**A.** Its Minimum inhibitory concentration is 16.

**Q.** What about the Minimum inhibitory concentration ([7]; Staphylococcus aureus clinical strain 5) of the same compound?
**A.** The Minimum inhibitory concentration was 8.

**Q.** What about the Minimum inhibitory concentration ([8]; Streptococcus pneumoniae clinical strain 1) of the same compound?
**A.** The Minimum inhibitory concentration was 64.

**Q.** What about the Minimum inhibitory concentration ([8]; Streptococcus pneumoniae clinical strain 2) of the same compound?
**A.** The Minimum inhibitory concentration was 64.

**Q.** What about the Minimum inhibitory concentration ([8]; Streptococcus pneumoniae clinical strain 3) of the same compound?
**A.** The Minimum inhibitory concentration was 64.

**Q.** And the Minimum inhibitory concentration ([8]; Streptococcus pneumoniae clinical strain 4)?
**A.** Its Minimum inhibitory concentration is 128.

**Q.** What about the Minimum inhibitory concentration ([8]; Streptococcus pneumoniae clinical strain 5) of the same compound?
**A.** The Minimum inhibitory concentration was 64.

**Q.** And the Minimum inhibitory concentration ([9]; Acinetobacter baumannii clinical strain 1)?
**A.** The Minimum inhibitory concentration was 16.

**Q.** What about the Minimum inhibitory concentration ([9]; Acinetobacter baumannii clinical strain 2) of the same compound?
**A.** The Minimum inhibitory concentration was 32.

**Q.** What about the Minimum inhibitory concentration ([9]; Acinetobacter baumannii clinical strain 3) of the same compound?
**A.** The Minimum inhibitory concentration was 16.

**Q.** And the Minimum inhibitory concentration ([9]; Acinetobacter baumannii clinical strain 4)?
**A.** Its Minimum inhibitory concentration is 16.

**Q.** And the Minimum inhibitory concentration ([9]; Acinetobacter baumannii clinical strain 5)?
**A.** The Minimum inhibitory concentration was 8.

**Q.** And the Minimum inhibitory concentration [10]?
**A.** Its Minimum inhibitory concentration is 16.

**Q.** What about the Minimum inhibitory concentration ([11]; Candida albicans clinical yeast strain 1) of the same compound?
**A.** The Minimum inhibitory concentration was 16.

**Q.** What about the Minimum inhibitory concentration ([11]; Candida albicans clinical yeast strain 2) of the same compound?
**A.** The Minimum inhibitory concentration was 8.

**Q.** And the Minimum inhibitory concentration ([11]; Candida albicans clinical yeast strain 3)?
**A.** The Minimum inhibitory concentration was 8.

**Q.** What about the Minimum inhibitory concentration ([11]; Candida albicans clinical yeast strain 4) of the same compound?
**A.** Its Minimum inhibitory concentration is 16.

**Q.** And the Minimum inhibitory concentration ([11]; Candida albicans clinical yeast strain 5)?
**A.** Its Minimum inhibitory concentration is 16.

**Q.** What about the Minimum inhibitory concentration ([12]; C. glabrata clinical yeast strain 1) of the same compound?
**A.** The Minimum inhibitory concentration was 8.

**Q.** And the Minimum inhibitory concentration ([12]; C. glabrata clinical yeast strain 2)?
**A.** Its Minimum inhibitory concentration is 8.

**Q.** And the Minimum inhibitory concentration ([12]; C. glabrata clinical yeast strain 3)?
**A.** The Minimum inhibitory concentration was 16.

**Q.** And the Minimum inhibitory concentration ([12]; C. glabrata clinical yeast strain 4)?
**A.** Its Minimum inhibitory concentration is 32.

**Q.** What about the Minimum inhibitory concentration ([13]; C. parapsilosis clinical yeast strain 1) of the same compound?
**A.** The Minimum inhibitory concentration was 8.

**Q.** What about the Minimum inhibitory concentration ([13]; C. parapsilosis clinical yeast strain 2) of the same compound?
**A.** The Minimum inhibitory concentration was 16.

**Q.** What about the Minimum inhibitory concentration ([13]; C. parapsilosis clinical yeast strain 3) of the same compound?
**A.** Its Minimum inhibitory concentration is 16.

**Q.** And the Minimum inhibitory concentration ([13]; C. parapsilosis clinical yeast strain 4)?
**A.** Its Minimum inhibitory concentration is 4.

**Q.** And the Minimum inhibitory concentration [14]?
**A.** The Minimum inhibitory concentration was 4.
